We go through one compound from patent US12054447B2, “PCNA inhibitors” (City of Hope, priority 2015, dated 2024).

One series has as its target human TRβ (Homo sapiens, UniProt P10828). The series is described as follows: Human thyroid hormone receptor beta (TRβ) reporter assay. The conditions noted are these: TRβ reporter cells, 24 h. The class given is cell-based. An excerpt: Reporter cells constitutively expressing human TRβ and containing a luciferase reporter gene functionally linked to a TRβ-responsive promoter were purchased from Indigo Biosciences (State College, PA). […] The effect of each compound on TRβ activity was examined by measuring the luciferase reporter gene expression according to the manufacturer's instruction.

The test system of another series is SK-N-DZ. Put plainly: Clonogenic assay with cisplatin. It is filed as cell-based, human. The conditions noted are these: cisplatin with or without 500 nM AOH1160 for 18 h, 3 weeks. The procedure: Three hundred human SK-N-DZ NB cells were seeded onto a 60-mm tissue culture dish. Once attached overnight, cells were treated with or without various concentrations of cisplatin in the presence or absence of 500 nM of AOH1160 for 18 h. Cells were washed twice with growth medium and were cultured in fresh medium for 3 weeks to allow surviving cells to form colonies. The medium was changed every 3 days throughout the experiment. The colonies formed under each treatment conditions were counted after being stained with 0.5% crystal violet.

In another series the test system is A549. The series is described as follows: AOH1160 IC50 in additional cancer cell lines (Table 4). The class given is cell-based. As to conditions: Homo sapiens; A549, Non-Small Cell Lung. From the text: (§1) In addition numerous analogs related to AOH1160 were screened in numerous neuroblastoma cell lines for anti-cancer activity (Table 2). AOH1160 was screened for anti-cancer activity in additional cancer cell lines besides neuroblastoma (Table 3).

Another series deals with DU-145. The description is as above. As to conditions: Homo sapiens; DU-145, Prostate. The class given is cell-based.
From the text: as §1

Another series relates to OVCAR-8. The series is described as above. The conditions noted are these: Homo sapiens; OVCAR-8, Ovarian. It is filed as cell-based.
From the text: as §1

A further series relates to NCI-H23. The description is as above. The class given is cell-based. The conditions noted are these: Homo sapiens; NCI-H23, Non-Small Cell Lung.
From the text: as §1

The test system of the next series is HL-60. The series is described as above. The class given is cell-based. As to conditions: Homo sapiens; HL-60, Leukemia.
From the text: as §1

The next series has as its system HCT-15. The description is as above. As to conditions: Homo sapiens; HCT-15, Colon. It is filed as cell-based.
From the text: as §1

The subject of another series is HCT-116. Described as above. It is filed as cell-based. The conditions noted are these: Homo sapiens; HCT-116, Colon.
From the text: as §1

Another series has as its system NCI-H322M. Described as above. The class given is cell-based. As to conditions: Homo sapiens, Non-Small Cell Lung.
From the text: as §1

Series [1] in a line: Pharmacokinetics (PK) of AOH1160 in animals. It is filed as in vivo, Rat. As to conditions: for AUC(0-inf) / Cmax / Tmax / half-life: rat, in vivo, po, 20 mg/kg, Rat PO 20 mg/kg.
Series [2] concerns SK-N-BE(2)c derived xenograft tumors. As to conditions: 30 mg/kg twice daily (BID) by oral gavages, vs vehicle.
A further series deals with 7SM0032. The series is described as follows: Cell growth, CellTitor-Glo assay, 72 h. It is filed as cell-based, human. The conditions noted are these: Homo sapiens; 7SM0032 (non-malignant). The procedure: The human NB cell lines, SK-N-DZ, SK-N-BE(2)c, SK-N-AS, and LAN-5 obtained from the American Type Culture Collection (Rockville, MD), were cultured in DMEM with 10% fetal bovine serum (FBS), 100 units/ml penicillin, and 100 μg/ml streptomycin in the presence of 5% CO2 at 37° C. Human PBMCs from a healthy donor were purchased from Sanguine BioSciences (Valencia, CA) and grown in RPMI1640 with 10% FBS, 100 units/ml penicillin, 100 μg/ml streptomycin, and 10 ng/ml IL-2 in the presence of 5% CO2 at 37° C. Human embryonic progenitor cell line 7SM0032 was acquired from Millipore (Billerica, MA) and grown in the hEPM-1 Media Kit purchased from the same company. The plasmid pCBASce expresses the rare cutting I-SceI meganuclease. The U20S-derived cell lines, DR-GFP and EJ5-GFP, each contain a stably transfected reporter gene for DSB repair mediated by HR and end joining (EJ), respectively. These cell lines were cultured in DMEM medium with 10% FBS at 37° C. in the presence of 5% CO2.
To measure the effect of the compounds on cell growth, cells were seeded at 3×10^4/ml into a 96-well plate. Once attached, cells were treated with various concentrations of AOH1160 for 72 h. Cell growth was measured by the CellTitor-Glo assay (Promega, Madison, WI) according to the manufacturer's instructions. To measure apoptosis, cells were seeded at 1×10^5/ml onto a chamber slide. Once attached, cells were treated with the 500 nM AOH1160 for 24 h. Cells were fixed and analyzed by a TUNEL assay using the TMR red in situ cell death detection kit (Roche Diagnostics, Indianapolis, IN).

The next series has as its system NCI-60 panel. The series is described as follows: NCI-60 panel test, median over the panel. The class given is cell-based. As to conditions: 60 cancer cell lines, 5-dose study. Here is the method:
FIG. 7. NCI-60 panel test. The effect of AOH1160 on growth of the NCI-60 panel, which consists of 60 cancer cell lines representing 9 major cancer types, was tested in a 5-dose study. Shown are the Log IC50 values determined for each cell line. […] This study was performed by the National Institute of Cancer.
As observed in FIG. 7, the effect of AOH1160 on growth of the NCI-60 panel, which consists of 60 cancer cell lines representing 9 major cancer types, was tested in a 5-dose study. Shown are the Log IC50 values determined for each cell line.

Chain of human TRβ (P10828 whole entry): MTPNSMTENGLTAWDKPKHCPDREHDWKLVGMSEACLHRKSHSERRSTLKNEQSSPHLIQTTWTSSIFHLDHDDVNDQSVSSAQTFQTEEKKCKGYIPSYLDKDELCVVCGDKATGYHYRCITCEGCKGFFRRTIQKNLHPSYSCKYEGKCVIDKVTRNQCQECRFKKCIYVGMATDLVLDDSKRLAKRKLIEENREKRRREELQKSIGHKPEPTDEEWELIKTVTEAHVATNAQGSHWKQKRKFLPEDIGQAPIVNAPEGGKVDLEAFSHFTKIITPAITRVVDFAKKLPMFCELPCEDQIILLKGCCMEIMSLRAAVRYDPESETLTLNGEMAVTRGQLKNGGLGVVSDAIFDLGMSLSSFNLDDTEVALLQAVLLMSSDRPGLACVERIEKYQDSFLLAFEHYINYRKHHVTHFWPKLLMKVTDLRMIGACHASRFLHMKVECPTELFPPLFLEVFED

On to `O=C(CNC(=O)c1cccc2ccccc12)Nc1ccccc1Oc1ccccc1` [AOH1160], for which, at human TRβ, the “thyroid hormone activity in a TR reporter assay” value is listed as “did not show any thyroid hormone activity”. In addition, the “sensitivity to cisplatin (colony formation)” value with SK-N-DZ is recorded as “more sensitive to cisplatin treatment in the presence of AOH1160 than in its absence”. Also, the IC50 in the series on A549 came to 173 nM; with DU-145, 200 nM; with OVCAR-8 it was 204 nM; in the series with NCI-H23, 194 nM; in the series on HL-60 it was 128 nM; in the series on HCT-15 it was 133 nM. For the same compound, the IC50 is 102 nM in the series on HCT-116, 157 nM with NCI-H322M, more than 20000 nM in the series on 7SM0032 and approximately 320 nM in the series with NCI-60 panel. In [1] (animals), the oral availability entry was “orally available”. For the same compound, the AUC(0-inf) in [1] (BID dosing) was 429 ± 195 ng·h/mL; in series [1] (Single dosing) it was 383 ± 110 ng·h/mL. For the same compound, the Cmax in series [1] (BID dosing) was found to be 73 ± 23 ng/mL; in series [1] (Single dosing), 50 ± 31 ng/mL. Besides, the Tmax in series [1] (BID dosing) came to 6 h; in series [1] (Single dosing), 3.3 ± 2.3 h. For the same compound, the half-life in series [1] (BID dosing) was 4.3 ± 1.7 h; in series [1] (Single dosing), 3.8 ± 31 h. Further, the tumor burden result in [2] is reported as “significantly reduced tumor burden”.
